In patent US20130102595A1 (Curis, Inc., priority 2011, published 2013) one finds IC50 data, which are given here for three compounds.

Experiment [1] has as its system HDACs (HeLa cell nuclear extracts). Briefly: HDAC enzymatic activity, Biomol Color de Lys system. The format is biochemical. The following applies: 1 hour, 25° C. The gist of the method: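 HeLa nuclear extract incubated with serially diluted compound and […] artificial substrate in 50 mM Tris/Cl pH 8.0, 137 mM NaCl, 2.7 mM KCl, 1 mM MgCl2. Run 1 h at 25 °C, stopped with developer. Fluorescence read (ex 350-380, em 440-460 nm); IC50 from sigmoidal dose-response fit.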

Experiment [2] has as its target T1, PI3Kα (p110α/p85α) (Homo sapiens, UniProt P42336).
T1 construct: GST (N); made in house; host or cells: Baculovirus-infected Sf9 cells
The experiment in a line: PI3Kα ADP-Glo assay. As to conditions: 20 μM PIP2, 10 μM ATP, 30 minutes. The format is biochemical. The gist of the method:
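Recombinant full-length human GST-p110α/His-p85α, co-expressed in Sf9 cells, was incubated 30 min at room temperature with 20 μM PIP2 and 10 μM ATP. The buffer was 50 mM HEPES pH 7.4, 150 mM NaCl, 5 mM MgCl2, 1 mM DTT, 3 µM orthovanadate and 0.5% DMSO. ADP formed was detected by ADP-Glo luminescence.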
(ADP-Glo first removes unused ATP, then detects ADP through luciferase.)

For experiment [3], the system named is CFPAC-1. Briefly: Cell proliferation assay (CellTiter-Glo). The format is cell-based. The following applies: Homo sapiens, Pancreas, 72 hours, 0.5% fetal bovine serum, read-out: antiproliferative activity IC50, CFPAC-1. The gist of the method:
(§1)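 Inhibition of growth was assessed as loss of ATP signal; cultures at 5,000–10,000 cells per well received serial compound doses for 72 h with 0.5% FBS, then were lysed for 30 min before luminescence reading.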
On the technique in general: Cellular ATP, detected with luciferase, serves as a proxy for viable cell number.

Experiment [4] has as its system CaPan1. The experiment in a line: Cell proliferation assay (CellTiter-Glo). The format is cell-based. The following applies: Homo sapiens, CAPAN-1; Pancreas; 72 hours, 0.5% fetal bovine serum; read-out: antiproliferative activity IC50, CaPan1. The gist of the method:
as §1

The subject of experiment [5] is CaPan2. The experiment in a line: Cell proliferation assay (CellTiter-Glo). The format is cell-based. As to conditions: Homo sapiens, Capan-2; Pancreas; 72 hours, 0.5% fetal bovine serum; read-out: antiproliferative activity IC50, CaPan2. The gist of the method:
as §1

The test system of experiment [6] is Calu6. Briefly: Cell proliferation assay (CellTiter-Glo). As to conditions: Homo sapiens, Calu-6; NSCLC; 72 hours, 0.5% fetal bovine serum; read-out: antiproliferative activity IC50, Calu6. The format is cell-based. The procedure, abridged:
as §1

Experiment [7] relates to H460. The experiment in a line: Cell proliferation assay (CellTiter-Glo). The format is cell-based. The following applies: Homo sapiens, NCI-H460; NSCLC; 72 hours, 0.5% fetal bovine serum; read-out: antiproliferative activity IC50, H460. The procedure, abridged:
as §1

Experiment [8] deals with HCT116. Briefly: Cell proliferation assay (CellTiter-Glo). The format is cell-based. As to conditions: Homo sapiens, HCT-116; Colon; 72 hours, 0.5% fetal bovine serum; read-out: antiproliferative activity IC50, HCT116. The gist of the method:
as §1

For experiment [9], the system named is MDA-MB-231. Briefly: Cell proliferation assay (CellTiter-Glo). The format is cell-based. As to conditions: Homo sapiens, Breast, 72 hours, 0.5% fetal bovine serum, read-out: antiproliferative activity IC50, MDA-MB-231. The procedure, abridged: as §1
The subject of experiment [10] is MiaPaca1. The experiment in a line: Cell proliferation assay (CellTiter-Glo). The format is cell-based. As to conditions: Pancreas; 72 hours, 0.5% fetal bovine serum; read-out: antiproliferative activity IC50, MiaPaca1. The gist of the method:
as §1

Experiment [11] concerns PANC-1. Briefly: Cell proliferation assay (CellTiter-Glo). As to conditions: Homo sapiens, Pancreas, 72 hours, 0.5% fetal bovine serum, read-out: antiproliferative activity IC50, PANC-1. The format is cell-based. The gist of the method: as §1
Experiment [12] deals with SW1990. The experiment in a line: Cell proliferation assay (CellTiter-Glo). The format is cell-based. The following applies: Homo sapiens, Pancreas, 72 hours, 0.5% fetal bovine serum, read-out: antiproliferative activity IC50, SW1990. The gist of the method: as §1
In experiment [13] the test system is WiDr. Briefly: Cell proliferation assay (CellTiter-Glo). The format is cell-based. The following applies: Homo sapiens, Colon, 72 hours, 0.5% fetal bovine serum, read-out: antiproliferative activity IC50, WiDr. The procedure, abridged: as §1
For experiment [14], the system named is A549. The experiment in a line: Cell proliferation assay (CellTiter-Glo). The format is cell-based. The following applies: Homo sapiens, NSCLC, 72 hours, 0.5% fetal bovine serum, read-out: antiproliferative activity IC50, A549. The procedure, abridged:
as §1

The test system of experiment [15] is H292. The experiment in a line: Cell proliferation assay (CellTiter-Glo). The format is cell-based. The following applies: Homo sapiens, NCI-H292; NSCLC; 72 hours, 0.5% fetal bovine serum; read-out: antiproliferative activity IC50, H292. The gist of the method: as §1
Experiment [16] has as its system OPM-2. Briefly: Cell proliferation assay (CellTiter-Glo). The format is cell-based. As to conditions: Homo sapiens, Multiple Myeloma, 72 hours, 0.5% fetal bovine serum, read-out: antiproliferative activity IC50, OPM-2. The procedure, abridged: as §1
For experiment [17], the system named is SWI-116. The experiment in a line: Cell proliferation assay (CellTiter-Glo). The following applies: Colon; 72 hours, 0.5% fetal bovine serum; read-out: antiproliferative activity IC50, SWI-116. The format is cell-based. The gist of the method:
as §1

pIC50: −log10 of the molar value.

T1 sequence (P42336 whole entry): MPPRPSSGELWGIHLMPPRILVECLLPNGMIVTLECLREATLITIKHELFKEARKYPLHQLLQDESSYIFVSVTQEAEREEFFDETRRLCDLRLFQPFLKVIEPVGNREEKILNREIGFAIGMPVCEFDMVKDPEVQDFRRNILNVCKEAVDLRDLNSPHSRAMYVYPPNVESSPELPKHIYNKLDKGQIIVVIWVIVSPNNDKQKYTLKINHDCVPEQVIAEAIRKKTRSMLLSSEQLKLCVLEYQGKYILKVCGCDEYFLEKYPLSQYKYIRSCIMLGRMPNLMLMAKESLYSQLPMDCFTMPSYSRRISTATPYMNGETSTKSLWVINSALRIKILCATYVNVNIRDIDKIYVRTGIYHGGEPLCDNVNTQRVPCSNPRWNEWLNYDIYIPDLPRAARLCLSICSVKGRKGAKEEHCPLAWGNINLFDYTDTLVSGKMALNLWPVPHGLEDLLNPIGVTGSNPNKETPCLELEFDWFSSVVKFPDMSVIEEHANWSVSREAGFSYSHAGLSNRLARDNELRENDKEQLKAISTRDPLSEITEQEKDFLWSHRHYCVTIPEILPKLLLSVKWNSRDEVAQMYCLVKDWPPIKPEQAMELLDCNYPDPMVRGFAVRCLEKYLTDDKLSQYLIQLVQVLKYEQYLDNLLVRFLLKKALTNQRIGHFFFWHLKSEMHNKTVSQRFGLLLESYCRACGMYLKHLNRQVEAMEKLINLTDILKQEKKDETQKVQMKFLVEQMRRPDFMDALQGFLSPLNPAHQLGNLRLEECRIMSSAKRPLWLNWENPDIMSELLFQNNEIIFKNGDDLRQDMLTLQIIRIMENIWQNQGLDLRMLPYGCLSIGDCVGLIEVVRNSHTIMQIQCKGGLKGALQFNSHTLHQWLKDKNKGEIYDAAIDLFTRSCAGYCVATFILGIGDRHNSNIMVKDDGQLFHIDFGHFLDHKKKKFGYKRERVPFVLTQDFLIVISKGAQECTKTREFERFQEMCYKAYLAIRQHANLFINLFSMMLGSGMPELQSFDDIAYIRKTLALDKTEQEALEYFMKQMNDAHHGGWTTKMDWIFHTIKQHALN
T1 sequence (P27986 whole entry partner): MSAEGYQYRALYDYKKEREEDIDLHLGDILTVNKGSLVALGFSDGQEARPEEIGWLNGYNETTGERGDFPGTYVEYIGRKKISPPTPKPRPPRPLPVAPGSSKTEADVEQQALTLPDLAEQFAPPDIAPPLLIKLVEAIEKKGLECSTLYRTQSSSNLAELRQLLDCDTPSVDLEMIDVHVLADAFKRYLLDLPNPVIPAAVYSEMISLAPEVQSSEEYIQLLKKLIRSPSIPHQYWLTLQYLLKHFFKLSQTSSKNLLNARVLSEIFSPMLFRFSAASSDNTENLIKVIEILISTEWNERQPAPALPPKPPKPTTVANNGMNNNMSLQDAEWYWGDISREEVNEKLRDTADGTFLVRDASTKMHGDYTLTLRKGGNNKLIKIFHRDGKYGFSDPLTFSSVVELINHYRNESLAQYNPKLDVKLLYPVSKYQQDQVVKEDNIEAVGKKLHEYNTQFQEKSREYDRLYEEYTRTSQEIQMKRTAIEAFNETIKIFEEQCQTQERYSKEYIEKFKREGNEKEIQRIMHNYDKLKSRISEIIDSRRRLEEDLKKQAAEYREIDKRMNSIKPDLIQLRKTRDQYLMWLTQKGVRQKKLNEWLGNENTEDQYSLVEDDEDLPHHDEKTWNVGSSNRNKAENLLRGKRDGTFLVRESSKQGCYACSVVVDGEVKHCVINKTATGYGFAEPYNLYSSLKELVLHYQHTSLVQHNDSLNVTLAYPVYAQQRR

Consider `CN(Cc1cc2nc(-c3cccc4[nH]ncc34)nc(N3CCOCC3)c2s1)c1ncc(C(=O)NO)cn1` [Compound 54, 2-(((2-(1H-indazol-4-yl)-4-morpholinothieno[3,2-d]pyrimidin-6-yl)methyl)(methyl)amino)-N-hydroxypyrimidine-5-carboxamide], for which the pIC50 (in general, the negative decadic logarithm of the IC50, by convention in mol/L) in [1] is above 7.00; in [2], above 7.00; in [3] it was 6.00 to 7.00; in [4] it was 7.00 to 8.00; in experiment [5], 7.00 to 8.00; in experiment [6], 7.00 to 8.00. In addition, the pIC50 is 6.00 to 7.00 in experiment [7]; above 8.00 in experiment [8]; 7.00 to 8.00 in experiment [9]; 7.00 to 8.00 in [10]; 7.00 to 8.00 in experiment [11]; 7.00 to 8.00 in experiment [12]. For the same compound, in experiment [13], the pIC50 was 7.00 to 8.00.

Regarding `CNc1ccc(-c2nc(N3CCOCC3)c3sc(CN(C)c4ncc(C(=O)NO)cn4)cc3n2)cn1` [Compound 111, N-Hydroxy-2-(methyl((2-(6-(methylamino)pyridin-3-yl)-4-morpholinothieno[3,2-d]pyrimidin-6-yl)methyl)amino)pyrimidine-5-carboxamide], the pIC50 in experiment [1] was above 7.00; in experiment [2] it was above 7.00; in experiment [14], 7.00 to 8.00; in experiment [3], 7.00 to 8.00; in experiment [5] it was 7.00 to 8.00; in experiment [6], 7.00 to 8.00. Besides, the pIC50 in [15] was above 8.00; in experiment [7], 7.00 to 8.00; in experiment [8], above 8.00; in experiment [9] it was 6.00 to 7.00; in [10], above 8.00; in [16] it was above 8.00. The negative-log IC50 (pIC50) in experiment [11] is 7.00 to 8.00; in experiment [12], above 8.00; in experiment [17] it was above 8.00; in [13], 7.00 to 8.00.

As for `CN(Cc1cc2nc(-c3ccc(N)cc3)nc(N3CCOCC3)c2s1)c1ncc(C(=O)NO)cn1` [Compound 150, 2-(((2-(4-aminophenyl)-4-morpholinothieno[3,2-d]pyrimidin-6-yl)methyl)(methyl)amino)-N-hydroxypyrimidine-5-carboxamide], the pIC50 was above 7.00 in [1]; above 7.00 in experiment [2]; above 8.00 in experiment [14]; 7.00 to 8.00 in experiment [3]; 6.00 to 7.00 in experiment [4]; above 8.00 in experiment [5]. Besides, the negative logarithm of the IC50 (pIC50) in experiment [6] was above 8.00; in [15], above 8.00; in [7] it was 7.00 to 8.00; in [8], above 8.00; in experiment [9], above 8.00; in experiment [10] it was above 8.00. For the same compound, the negative logarithm of the IC50 (pIC50) in [16] is above 8.00; in experiment [11] it was 7.00 to 8.00; in experiment [12] it was above 8.00; in [17], above 8.00; in experiment [13] it was 7.00 to 8.00.
